Assay results taken from US8821568B2, “Implant modified with non-hydroxylated vitamin D precursors” (Numat Biomedical S.L., priority 2008, dated 2014).

Tests used:
Format in all cases: cell-based, mouse
MC3T3-E1 cells [1] = assay: ELISA of 25-D3 and 1,25-D3 released to the culture media, plastic wells; settings: TCP; 48 hours; 2×10^−2 nmols, not irradiated; mean±SEM
Method: (§1) To test the effect of the different treatments onto the plastic wells, 96-well plates made of polystyrene were used and the treatments with 7-DHC performed directly onto them. Cells grown onto untreated TCP were added as a control for all the experiments. Cells were seeded at a density of 30,000 cells/cm^2 and they were maintained in α-MEM supplemented with 10% FCS and antibiotics. Culture media was collected after 48 hours, to test cytotoxicity and the production of the hydroxylated forms of vitamin D. Cells were harvested after 2 days of culture using Trizol reagent (Roche Diagnostics, Mannheim, Germany), to analyse early gene expression response of several osteoblast differentiation markers and enzymes involved in vitamin D synthesis using real-time RT-PCR.
25-D3 and 1,25-D3 released to the culture media after two days of treatment were analyzed by enzyme-linked immunosorbent assay (ELISA). Aliquots from the culture media were centrifuged at 1800 rpm for 5 minutes at 4° C. and supernatants were used for 25-D3 and 1,25-D3 determination following instructions described by the manufacturer (Immunodiagnostic Systems Ltd, Boldon, Tyne and Wear, UK).

MC3T3-E1 cells [2] = assay: Real-time RT-PCR of osteoblast differentiation markers, coated titanium implants; settings: Ti implants; 48 h; 2×10^−2 nmols, no UV, compared to control
Method: (§2) To test the effect of the surface modification, 96-well plates were used. Ti disks were placed into the wells and treatments and UV-activation were performed over there. Cells grown onto untreated polystyrene tissue culture plastic (TCP) were added as a control for all the experiments. Cells were seeded at a density of 30,000 cells/cm^2 and they were maintained in α-MEM supplemented with 10% FCS and antibiotics. Culture media was collected after 48 hours, to test cytotoxicity and the production of the hydroxylated form of vitamin D, 25-D3. Cells were harvested after two days of culture using Trizol reagent (Roche Diagnostics, Mannheim, Germany), to analyze gene expression of several osteoblast differentiation markers and enzymes involved in vitamin D synthesis using real-time RT-PCR. On the other hand, MC3T3-E1 cells were harvested after 21 days to measure calcium content and ALP activity in the cell monolayer.
(§3) RNA was isolated from cells using a monophasic solution of phenol and guanidine thiocyanate (Trizol, Roche Diagnostics, Mannheim, Germany) according to the manufacturer's protocol. RNA was quantified at 260 nm using a Nanodrop spectrophotometer (NanoDrop Technologies, Wilmington, Del., USA).
(§4) Total RNA previously isolated was reverse-transcribed to cDNA using High Capacity RNA to cDNA kit (Applied Biosystems, Foster City, Calif.) according to the protocol of the supplier. The same amount of total RNA from each sample was converted into cDNA. Each cDNA was diluted ¼ and aliquots were stored at −20° C. until the PCR reactions were carried out.
Real-time RT-PCR was performed for two reference genes: 18S ribosomal RNA (18S rRNA), glyceraldehyde-3-phosphate dehydrogenase (GAPDH); and eleven target genes: alkaline phosphathase (ALP), Interleukin 6 (IL-6), Collagen (Coll-1), Osteocalcin (OC), Bone Morphogenetic Protein 2 (BMP-2), Osterix (Osx), Receptor activator of nuclear factor kappa-B ligand (RANKL), Osteoprogesterin (OPG) and genes involved in vitamin D synthesis such as Vitamin D3 25-hydroxylase (CYP27A1) and 25 hydroxyvitamin D3-1-alpha hydroxylase (CYP27B1). Real-time PCR were performed in the Lightcycler 480® (Roche Diagnostics, Germany). Each reaction contained 5 μl of LightCycler-FastStart DNA Master^PLUS SYBR Green I (Roche Diagnostics, Mannheim, Germany), 0.5 μM of the sense and antisense specific primers (Table 1) and 3 μl of the cDNA dilution in a final volume of 10 μl. The normal amplification program consisted of a preincubation step for denaturation of the template cDNA (10 min 95° C.), followed by 45 cycles consisting of a denaturation step (10 s 95° C.), an annealing step (10 s 60° C., except for ALP that was 10 s at 65° C., OSX with 10 s at 68° C.) and an extension step (10 s 72° C.). After each cycle, fluorescence was measured at 72° C. Every run included a negative control without cDNA template. To confirm amplification specificity, PCR products were subjected to a melting curve analysis on the LightCycler and subsequently 2% agarose/TAE gel electrophoresis, Tm and amplicon size, respectively.
To allow relative quantification after PCR, real-time efficiencies were calculated from the given slopes in the LightCycler 480 software (Roche Diagnostics, Mannheim, Germany) using serial dilutions. Relative quantification after PCR was calculated by normalizing target gene concentration in each sample by the concentration mean of the two reference genes in given sample using the Advanced relative quantification method provided by the LightCycler 480 analysis software.

MC3T3-E1 cells [3] = assay: ALP activity in cell monolayer on coated titanium implants; settings: Ti implants; day 21; UV-untreated; percentage of ethanol UV-untreated group set to 100%; mean±SEM
Method: as §2
Cell monolayer was collected at 21 cell differentiation days and PBS 0.1% Triton X-100 was added to solubilize proteins. Cell lysates were put into freeze/thaw cycles (liquid nitrogen and 37° C. water bath) to improve protein recovery. After centrifugation at 33,000 g for 15 min at 4° C., supernatants acquired were assayed for ALP activity, calcium content and total protein determination. ALP activity was calculated by measuring the cleavage of p-Nitrophenyl Phosphate (pNPP) (Sigma, St. Louis, Mo., USA) in a soluble yellow end product which absorbs at 405 nm. A volume of 100 μl of this substrate was used in combination with 25 μl of each sample supernatant or standard point. The standard curve was prepared from calf intestinal alkaline phosphatase (CIAP, 1 U/μl) (Promega, Madison, Wis., USA) by mixing 1 μl from the stock CIAP with 5 ml of alkaline phosphatase buffer (1:5000 dilution), and then making 1:5 serial dilutions. Once the reaction was carried out, after 30 min in dark at room temperature, it was stopped with the addition of 50 μl of 3 M sodium hydroxide. At this point, absorbance was read at 405 nm.
Total protein was determined using a BCA protein assay kit (Pierce, Rockford, Ill., USA). For the analysis, cell supernatants were diluted 1:1 in PBS 0.1% Triton X-100. Standard curve and samples were analyzed as described by the manufacturer and reading the absorbance at 562 nm.

MC3T3-E1 cells [4] = assay: Real-time RT-PCR of vitamin D hydroxylation/degradation enzymes (CYP27A1, CYP27B1, CYP24A1), plastic wells; settings: TCP, 2×10^−2 nmols, not irradiated
Method: as §1, §3, §4
(§5) Real-time RT-PCR was performed for two reference genes: 18S ribosomal RNA (18S rRNA), glyceraldehyde-3-phosphate dehydrogenase (GAPDH), and 11 target genes alkaline phospathase (ALP), Interleukin 6 (IL-6), Collagen (Coll-1), Osteocalcin (OC), Bone Morphogenetic Protein 2 (BMP-2), Osterix (Osx), Receptor activator of nuclear factor kappa-B ligand (RANKL), Osteoprogesterin (OPG) and genes involved in vitamin D synthesis such as Vitamin D3 25-hydroxylase (CYP27A1), 25 hydroxyvitamin D3-1-alpha hydroxylase (CYP27B1) and 1,25-dihydroxyvitamin D3 24-hydroxylase (CYP24A1).
Real-time PCR were performed in the Lightcycler 480® (Roche Diagnostics, Germany). […] After each cycle, fluorescence was measured at 72° C. […]
(§6) To allow relative quantification after PCR, real-time efficiencies were calculated from the given slopes in the LightCycler 480 software (Roche Diagnostics, Mannheim, Germany) using serial dilutions. Relative quantification after PCR was calculated by normalizing target gene concentration in each sample by the concentration mean of the two reference genes in given sample using the “advanced relative quantification method” provided by the LightCycler 480 analysis software.

MC3T3-E1 cells [5] = assay: Real-time RT-PCR of bone markers, plastic wells; settings: TCP; 2 days; 2×10^−2 nmols, not irradiated, compared to control
Method: as §1, §3, §4, §5
Real-time PCR were performed in the Lightcycler 480® (Roche Diagnostics, Germany). Each reaction contained 5 μl of LightCycler-FastStart DNA Master^PLUS SYBR Green I (Roche Diagnostics, Mannheim, Germany), 0.5 μM of the sense and antisense specific primers (Table 1) and 3 μl of the cDNA dilution in a final volume of 10 μl. The normal amplification program consisted of a preincubation step for denaturation of the template cDNA (10 min 95° C.), followed by 45 cycles consisting of a denaturation step (10 s 95° C.), an annealing step (10 s 60° C., except for ALP that was 10 s at 65° C., OSX with 10 s at 68° C. and CYP24A1 at 58° C. 10 s) and an extension step (10 s 72° C.). After each cycle, fluorescence was measured at 72° C. Every run included a negative control without cDNA template. To confirm amplification specificity, PCR products were subjected to a melting curve analysis on the LightCycler and subsequently 2% agarose/TAE gel electrophoresis, Tm and amplicon size, respectively.
as §6

MC3T3-E1 cells [6] = assay: Calcium content (mineralization, ICP-AES) on coated titanium implants; settings: Ti implants; 28 days; UV-untreated; data not shown
Method: as §2, with “On the other hand, MC3T3-E1 cells were harvested after 21 days to measure calcium content and ALP activity in the cell monolayer.” left out
[…] Cell lysates were put into freeze/thaw cycles (liquid nitrogen and 37° C. water bath) to improve protein recovery. […] ALP activity was calculated by measuring the cleavage of p-Nitrophenyl Phosphate (pNPP) (Sigma, St. Louis, Mo., USA) in a soluble yellow end product which absorbs at 405 nm. […] At this point, absorbance was read at 405 nm.
To determine calcium content samples were analyzed by inductively coupled plasma atomic emission spectrometry (Optima 5300 DV, PerkinElmer, Massachussetts, USA). […]

| Structure (SMILES) | 1,25-D3 detected in culture media (MC3T3-E1 cells [1]) [pmol/L] | 25-D3 released to culture media (MC3T3-E1 cells [1]) [nmol/L] | RANKL gene expression (MC3T3-E1 cells [2]) | ALP activity (MC3T3-E1 cells [3]) [%] | CYP27B1 mRNA expression (MC3T3-E1 cells [4]; 48 h) | CYP24A1 mRNA levels (MC3T3-E1 cells [4]; 2 days, data not shown) | IL-6 expression levels (MC3T3-E1 cells [5]) | Calcium levels (MC3T3-E1 cells [6]) |
| --- | --- | --- | --- | --- | --- | --- | --- | --- |
| C=C1CC[C@H](O)C/C1=C/C=C1\CCC[C@]2(C)[C@@H]([C@H](C)CCCC(C)C)CC[C@@H]12 [D3, cholecalciferol, reference compound] | 19.7 ± 0.7 | 9.1 ± 1.9 | Statistical significances | 35.28±4.23 | – | – | – | – |
| C=C1CC[C@H](O)C/C1=C/C=C1\CCC[C@]2(C)[C@@H]([C@H](C)CCCC(C)(C)O)CC[C@@H]12 [25-D3, 25-hydroxyvitamin D3, reference compound] | 42 ± 4 | 415 ± 20 | – | 77.40±13.40 | not statistically different | only detected | significantly higher expression levels | trend to increased calcium levels |
